pIC50: −log10 of the molar value. Activity calls are given as the source filed them. The rule behind the calls is not given here.
How the values were obtained:
[1] = Growth inhibition of human CCC-HIE-2 cells incubated for 48 hrs by CCK-8 assay; format: toxicity, cell-based
[2] = molecular target: CYP2D6 (Homo sapiens, UniProt P10635); assay: Inhibition of CYP2D6 in human liver microsomes using quinidine as […] at 10 uM preincubated for 10 mins followed by NADPH addition measured after 15 mins by LC-MS/MS analysis relative to control; format: ADME, Microsome; details: time 25 min
Chain of CYP2D6 (P10635 whole entry): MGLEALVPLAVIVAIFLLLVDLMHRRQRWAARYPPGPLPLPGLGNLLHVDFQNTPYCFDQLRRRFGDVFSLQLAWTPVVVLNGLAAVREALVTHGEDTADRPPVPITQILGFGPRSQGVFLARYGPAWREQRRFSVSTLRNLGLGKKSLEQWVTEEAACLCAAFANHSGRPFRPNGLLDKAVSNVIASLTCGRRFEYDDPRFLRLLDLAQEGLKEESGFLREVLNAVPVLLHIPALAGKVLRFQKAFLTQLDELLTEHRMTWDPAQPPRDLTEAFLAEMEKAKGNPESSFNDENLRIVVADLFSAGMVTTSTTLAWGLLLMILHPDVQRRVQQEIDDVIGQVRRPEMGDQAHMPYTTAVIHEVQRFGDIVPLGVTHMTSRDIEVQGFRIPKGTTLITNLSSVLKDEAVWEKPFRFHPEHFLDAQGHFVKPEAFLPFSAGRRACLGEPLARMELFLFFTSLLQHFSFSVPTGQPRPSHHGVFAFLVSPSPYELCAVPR

[3] = Cmax in Sprague-Dawley rat at 2 mg/kg,iv administration measured for 0.25 to 24 hrs by LC-MS/MS analysis; format: ADME, organism-based; details: in vivo, time 0.25-24 hrs
[4] = test system: HCT-116; assay: Antitumor activity against human HCT-116 cells xenografted in BALB/c mouse assessed as downregulation of RNA polymerase II phosphorylation at 25 mg/kg,po administrated once daily for 3 weeks by Western blotting analysis; format: functional, organism-based
[5] = molecular target: Cyclin-dependent kinase 6 (Homo sapiens, UniProt Q00534); assay: Inhibition of CDK6 (unknown origin)
Chain of Cyclin-dependent kinase 6 (Q00534 whole entry): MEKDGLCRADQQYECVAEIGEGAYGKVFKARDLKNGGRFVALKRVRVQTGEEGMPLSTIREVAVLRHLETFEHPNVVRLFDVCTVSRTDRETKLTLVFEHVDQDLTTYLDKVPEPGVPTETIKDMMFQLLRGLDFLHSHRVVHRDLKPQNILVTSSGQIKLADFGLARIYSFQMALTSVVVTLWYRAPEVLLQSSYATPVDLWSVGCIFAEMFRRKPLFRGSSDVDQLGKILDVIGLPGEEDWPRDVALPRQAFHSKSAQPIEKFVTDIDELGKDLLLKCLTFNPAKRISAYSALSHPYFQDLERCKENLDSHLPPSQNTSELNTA

[6] = test system: HCT-116; assay: Antitumor activity against human HCT-116 cells xenografted in BALB/c mouse assessed as downregulation of Mcl-1 expression at 25 mg/kg,po administrated once daily for 3 weeks by Western blotting analysis; format: functional, organism-based
[7] = test system: HCT-116; assay: Inhibition of colony formation in human HCT-116 cells assessed as reduction in colony number incubated for 14 days by crystal violet staining assay; format: functional, cell-based; details: time 14.0 day
[8] = test system: HT-29; assay: Growth inhibition of human HT-29 cells incubated for 48 hrs by CCK-8 assay; format: functional
[9] = molecular target: Serine/threonine-protein kinase PLK2 (Homo sapiens) (UniProt Q9NYY3); assay: Inhibition of human PLK2 at 100 nM by kinase profiling assay relative to control
Chain of Serine/threonine-protein kinase PLK2 (Homo sapiens) (Q9NYY3 whole entry, looked up): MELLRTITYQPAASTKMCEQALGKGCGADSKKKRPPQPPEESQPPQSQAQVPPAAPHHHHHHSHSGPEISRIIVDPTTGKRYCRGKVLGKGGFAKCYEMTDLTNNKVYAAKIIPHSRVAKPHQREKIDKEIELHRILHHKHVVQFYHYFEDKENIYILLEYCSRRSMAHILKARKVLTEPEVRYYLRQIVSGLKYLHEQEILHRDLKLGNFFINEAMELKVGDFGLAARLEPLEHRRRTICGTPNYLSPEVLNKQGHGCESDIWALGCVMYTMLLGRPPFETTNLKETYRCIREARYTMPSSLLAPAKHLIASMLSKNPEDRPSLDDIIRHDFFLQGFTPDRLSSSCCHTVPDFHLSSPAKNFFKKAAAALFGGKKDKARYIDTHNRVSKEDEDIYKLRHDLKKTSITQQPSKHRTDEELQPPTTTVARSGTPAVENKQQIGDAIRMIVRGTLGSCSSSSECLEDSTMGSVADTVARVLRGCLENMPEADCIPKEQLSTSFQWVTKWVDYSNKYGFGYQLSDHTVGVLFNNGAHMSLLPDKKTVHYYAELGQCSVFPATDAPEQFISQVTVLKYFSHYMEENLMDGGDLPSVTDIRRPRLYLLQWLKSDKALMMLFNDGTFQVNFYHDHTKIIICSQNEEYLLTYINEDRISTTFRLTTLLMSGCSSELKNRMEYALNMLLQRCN

[10] = molecular target: Serine/threonine-protein kinase Nek1 (Homo sapiens) (UniProt Q96PY6); assay: Inhibition of human NEK1 at 100 nM by kinase profiling assay relative to control
Chain of Serine/threonine-protein kinase Nek1 (Homo sapiens) (Q96PY6 whole entry): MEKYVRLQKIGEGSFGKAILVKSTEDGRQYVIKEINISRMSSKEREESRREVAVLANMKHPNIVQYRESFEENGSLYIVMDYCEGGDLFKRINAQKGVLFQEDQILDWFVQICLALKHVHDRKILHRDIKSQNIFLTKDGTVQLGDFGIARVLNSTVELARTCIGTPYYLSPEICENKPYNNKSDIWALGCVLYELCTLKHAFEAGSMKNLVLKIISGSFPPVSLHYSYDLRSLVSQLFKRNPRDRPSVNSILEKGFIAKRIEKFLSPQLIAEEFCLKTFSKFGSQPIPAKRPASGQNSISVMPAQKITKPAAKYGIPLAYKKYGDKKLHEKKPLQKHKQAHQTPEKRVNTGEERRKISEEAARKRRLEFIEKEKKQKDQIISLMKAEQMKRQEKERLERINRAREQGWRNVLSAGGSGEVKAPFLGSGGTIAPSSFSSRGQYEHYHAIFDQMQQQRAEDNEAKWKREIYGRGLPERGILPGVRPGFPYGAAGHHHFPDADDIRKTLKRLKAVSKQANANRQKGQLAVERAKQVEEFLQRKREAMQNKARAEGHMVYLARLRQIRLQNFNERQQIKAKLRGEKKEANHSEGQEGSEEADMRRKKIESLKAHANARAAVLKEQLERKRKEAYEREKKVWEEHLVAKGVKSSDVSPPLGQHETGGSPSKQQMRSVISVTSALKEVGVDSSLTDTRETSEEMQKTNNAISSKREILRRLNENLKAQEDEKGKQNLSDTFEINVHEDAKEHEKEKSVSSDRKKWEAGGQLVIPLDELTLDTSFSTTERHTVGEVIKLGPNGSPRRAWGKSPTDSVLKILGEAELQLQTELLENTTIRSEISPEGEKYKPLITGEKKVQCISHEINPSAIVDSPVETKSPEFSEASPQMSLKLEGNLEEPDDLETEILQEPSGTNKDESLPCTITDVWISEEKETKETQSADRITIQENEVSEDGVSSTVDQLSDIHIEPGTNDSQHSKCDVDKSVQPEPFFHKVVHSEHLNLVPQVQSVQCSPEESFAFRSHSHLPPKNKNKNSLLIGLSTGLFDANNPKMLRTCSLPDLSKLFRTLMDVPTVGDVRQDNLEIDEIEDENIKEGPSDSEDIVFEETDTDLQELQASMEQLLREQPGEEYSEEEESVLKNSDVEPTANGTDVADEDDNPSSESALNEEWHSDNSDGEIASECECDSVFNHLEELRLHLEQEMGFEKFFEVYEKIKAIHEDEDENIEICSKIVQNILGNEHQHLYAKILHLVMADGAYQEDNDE

[11] = Intrinsic clearance in human liver microsomes at 100 uM measured upto 60 mins in presence of NADPH by LC-MS/MS analysis; format: ADME, Microsome; details: 1 h
[12] = Apparent volume of distribution in Sprague-Dawley rat at 2 mg/kg,iv administration measured for 0.25 to 24 hrs by LC-MS/MS analysis; format: ADME, organism-based; details: in vivo, time 0.25-24 hrs, read-out: Vz
[13] = test system: HCT-116; assay: Antitumor activity against human HCT-116 cells xenografted in BALB/c mouse assessed as upregulation of PARP expression at 50 mg/kg,po administrated once daily for 3 weeks by Western blotting analysis; format: functional, organism-based
[14] = Toxicity in BALB/c mouse xenografted with human HCT-116 cells assessed as liver morphological change at 25 mg/kg,po administrated once daily for 3 weeks by hematoxylin and eosin staining based microscopic analysis; format: organism-based; details: in vivo, 504 h
[15] = molecular target: Rho-associated protein kinase 1 (Homo sapiens) (UniProt Q13464); assay: Inhibition of human ROCK1 at 100 nM by kinase profiling assay relative to control
[16] = Toxicity in BALB/c mouse xenografted with human HCT-116 cells assessed as body weight loss at 50 mg/kg,po administrated once daily for 3 weeks; format: organism-based; details: in vivo, 504 h
[17] = Toxicity in BALB/c mouse xenografted with human HCT-116 cells assessed as heart morphological change at 25 mg/kg,po administrated once daily for 3 weeks by hematoxylin and eosin staining based microscopic analysis; format: organism-based; details: in vivo, 504 h
[18] = Toxicity in BALB/c mouse xenografted with human HCT-116 cells assessed as heart morphological change at 50 mg/kg,po administrated once daily for 3 weeks by hematoxylin and eosin staining based microscopic analysis; format: organism-based; details: in vivo, 504 h
[19] = test system: HCT-116; assay: Induction of apoptosis in human HCT-116 cells assessed as increase in caspase-3 activity incubated for 48 hrs by GreenNuc substrate based flow cytometric analysis; format: functional, cell-based
[20] = molecular target: cAMP-dependent protein kinase catalytic subunit alpha (Homo sapiens) (UniProt P17612); assay: Inhibition of human PKACalpha at 100 nM by kinase profiling assay relative to control
[21] = AUC (0 to infinity) in Sprague-Dawley rat at 10 mg/kg,po administration measured for 0.25 to 24 hrs by LC-MS/MS analysis; format: ADME, organism-based; details: in vivo, time 0.25-24 hrs
[22] = Intrinsic microsomal clearance in human liver microsomes at 100 uM measured upto 60 mins in presence of NADPH by LC-MS/MS analysis; format: ADME, Microsome; details: read-out: CLH
[23] = molecular target: Interleukin-1 receptor-associated kinase 1 (Homo sapiens) (UniProt P51617); assay: Inhibition of human IRAK1 at 100 nM by kinase profiling assay relative to control
Chain of Interleukin-1 receptor-associated kinase 1 (Homo sapiens) (P51617 whole entry, looked up): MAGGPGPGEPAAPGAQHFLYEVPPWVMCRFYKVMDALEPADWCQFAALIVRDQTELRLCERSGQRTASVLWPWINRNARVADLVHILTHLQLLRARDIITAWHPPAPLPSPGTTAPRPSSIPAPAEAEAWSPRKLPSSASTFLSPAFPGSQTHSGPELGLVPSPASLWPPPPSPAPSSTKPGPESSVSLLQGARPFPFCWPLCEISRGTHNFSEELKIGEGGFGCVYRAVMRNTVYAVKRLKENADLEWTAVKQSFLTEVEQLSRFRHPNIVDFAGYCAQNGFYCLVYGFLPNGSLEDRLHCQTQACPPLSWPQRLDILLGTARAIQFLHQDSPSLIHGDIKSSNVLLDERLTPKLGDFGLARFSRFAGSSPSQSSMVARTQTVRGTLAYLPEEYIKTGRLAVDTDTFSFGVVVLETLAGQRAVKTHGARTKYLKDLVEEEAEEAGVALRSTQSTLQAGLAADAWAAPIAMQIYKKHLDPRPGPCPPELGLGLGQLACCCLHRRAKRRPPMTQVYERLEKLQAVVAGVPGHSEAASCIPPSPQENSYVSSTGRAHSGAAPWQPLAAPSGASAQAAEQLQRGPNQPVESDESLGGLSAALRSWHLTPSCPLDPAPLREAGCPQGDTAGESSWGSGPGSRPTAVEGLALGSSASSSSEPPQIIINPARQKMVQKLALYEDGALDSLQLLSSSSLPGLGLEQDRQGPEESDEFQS

[24] = Stability in human liver microsomes assessed as compound remaining at 100 uM measured upto 60 mins in presence of NADPH by LC-MS/MS analysis; format: ADME, Microsome; details: read-out: Stability
[25] = Toxicity in BALB/c mouse xenografted with human HCT-116 cells assessed as body weight loss at 25 mg/kg,po administrated once daily for 3 weeks; format: organism-based; details: in vivo, 504 h
[26] = Toxicity in BALB/c mouse xenografted with human HCT-116 cells assessed as lung morphological change at 50 mg/kg,po administrated once daily for 3 weeks by hematoxylin and eosin staining based microscopic analysis; format: organism-based; details: in vivo, 504 h
[27] = molecular target: Cyclin-dependent kinase 7 (Homo sapiens, UniProt P50613); assay: Inhibition of CDK7 (unknown origin)
Chain of Cyclin-dependent kinase 7 (P50613 whole entry): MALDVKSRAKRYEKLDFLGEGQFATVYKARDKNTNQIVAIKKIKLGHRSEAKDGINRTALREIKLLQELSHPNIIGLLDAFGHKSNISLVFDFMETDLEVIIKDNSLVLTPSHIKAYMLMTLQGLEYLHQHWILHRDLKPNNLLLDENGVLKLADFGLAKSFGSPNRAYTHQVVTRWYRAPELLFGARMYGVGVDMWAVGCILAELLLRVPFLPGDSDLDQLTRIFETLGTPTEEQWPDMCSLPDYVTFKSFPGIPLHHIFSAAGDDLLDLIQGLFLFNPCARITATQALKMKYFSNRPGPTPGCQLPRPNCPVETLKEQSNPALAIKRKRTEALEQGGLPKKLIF

[28] = molecular target: Cyclin-dependent kinase 2 (Homo sapiens, UniProt P24941); assay: Inhibition of CDK2 (unknown origin)
[29] = Toxicity in BALB/c mouse xenografted with human HCT-116 cells assessed as liver morphological change at 50 mg/kg,po administrated once daily for 3 weeks by hematoxylin and eosin staining based microscopic analysis; format: organism-based; details: in vivo, 504 h
[30] = molecular target: Cyclin-dependent kinase 4 (Homo sapiens, UniProt P11802); assay: Inhibition of CDK4 (unknown origin)
Chain of Cyclin-dependent kinase 4 (P11802 whole entry): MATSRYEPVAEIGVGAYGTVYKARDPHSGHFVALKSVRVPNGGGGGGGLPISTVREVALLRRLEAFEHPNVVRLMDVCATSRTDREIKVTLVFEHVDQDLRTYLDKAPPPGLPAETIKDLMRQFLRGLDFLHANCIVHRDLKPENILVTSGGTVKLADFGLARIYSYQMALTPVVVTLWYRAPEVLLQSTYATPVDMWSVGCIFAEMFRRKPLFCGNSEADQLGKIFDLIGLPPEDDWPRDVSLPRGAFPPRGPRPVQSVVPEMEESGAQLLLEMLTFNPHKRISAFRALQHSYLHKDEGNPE

[31] = AUC (0 to t) in Sprague-Dawley rat at 2 mg/kg,iv administration measured for 0.25 to 24 hrs by LC-MS/MS analysis; format: ADME, organism-based; details: in vivo, time 0.25-24 hrs
[32] = Tmax in Sprague-Dawley rat at 10 mg/kg,po administration measured for 0.25 to 24 hrs by LC-MS/MS analysis; format: ADME, organism-based; details: in vivo, time 0.25-24 hrs
[33] = test system: HCT-116; assay: Antitumor activity against human HCT-116 cells xenografted in BALB/c mouse assessed as downregulation of Mcl-1 expression at 50 mg/kg,po administrated once daily for 3 weeks by Western blotting analysis; format: functional, organism-based
[34] = molecular target: Cyclin-dependent kinase 9 (Homo sapiens, UniProt P50750); assay: Inhibition of human CDK9 at 100 nM by kinase profiling assay relative to control
Chain of Cyclin-dependent kinase 9 (P50750 whole entry): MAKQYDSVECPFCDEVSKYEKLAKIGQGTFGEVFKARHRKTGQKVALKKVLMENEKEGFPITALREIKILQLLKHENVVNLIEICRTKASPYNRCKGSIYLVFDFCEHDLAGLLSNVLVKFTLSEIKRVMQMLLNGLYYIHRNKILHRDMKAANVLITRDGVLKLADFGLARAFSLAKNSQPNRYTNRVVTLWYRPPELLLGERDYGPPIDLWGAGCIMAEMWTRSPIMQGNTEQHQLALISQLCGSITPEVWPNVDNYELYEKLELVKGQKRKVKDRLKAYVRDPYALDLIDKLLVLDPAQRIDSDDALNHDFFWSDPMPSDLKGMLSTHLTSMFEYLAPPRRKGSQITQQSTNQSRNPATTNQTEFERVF

[35] = Half life in Sprague-Dawley rat at 10 mg/kg,po administration measured for 0.25 to 24 hrs by LC-MS/MS analysis; format: ADME, organism-based; details: in vivo, time 0.25-24 hrs
[36] = Selectivity index, ratio of GI50 for growth inhibition of human SW480 cells to GI50 for growth inhibition of human HCT-116 cells; format: functional
[37] = molecular target: CYP2C9 (Homo sapiens, UniProt P11712); assay: Inhibition of CYP2C9 in human liver microsomes using sulfaphenazole as […] at 10 uM preincubated for 10 mins followed by NADPH addition measured after 15 mins by LC-MS/MS analysis relative to control; format: ADME, Microsome; details: probe sulfaphenazole, time 25 min
Chain of CYP2C9 (P11712 whole entry): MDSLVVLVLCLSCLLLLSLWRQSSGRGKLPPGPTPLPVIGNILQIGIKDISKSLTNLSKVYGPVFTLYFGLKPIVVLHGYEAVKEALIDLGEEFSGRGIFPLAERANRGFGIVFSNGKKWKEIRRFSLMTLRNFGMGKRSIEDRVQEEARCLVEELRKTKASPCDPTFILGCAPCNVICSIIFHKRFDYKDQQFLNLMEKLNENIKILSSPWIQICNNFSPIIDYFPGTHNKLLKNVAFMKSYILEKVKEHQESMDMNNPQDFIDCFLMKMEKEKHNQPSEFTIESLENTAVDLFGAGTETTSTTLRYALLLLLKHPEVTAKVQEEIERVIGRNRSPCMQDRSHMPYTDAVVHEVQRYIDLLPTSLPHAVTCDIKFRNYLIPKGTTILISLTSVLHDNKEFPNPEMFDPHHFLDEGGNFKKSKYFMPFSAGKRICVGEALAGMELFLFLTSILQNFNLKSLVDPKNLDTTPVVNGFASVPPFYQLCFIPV

**Q.** What does the source list for CC(C)n1nnc2ccc(-c3ccnc(Nc4cc(C(=O)N5CCCN(C)CC5)ccn4)c3)cc21?
**A.** GI50 at 48 h [1]: 9510 nM; inhibition at 0.25 h, 10 µM [2]: 9.9%; Cmax [3]: 358 ng/mL; Activity [4]: Active; pIC50 [5]: 6.68; Activity [6]: Active; inhibition [7]: Dose-Dependent Effect; GI50 [8]: 560 nM; inhibition [9]: < 50%; inhibition [10]: < 50%; CLH [11]: 49.6 µL/min/mg; Vd [12]: 13.4 L/kg; Activity [13]: Active; Activity [14]: Non-Toxic; inhibition [15]: < 50%; Activity [16]: Non-Toxic; Activity [17]: Non-Toxic; Activity [18]: Non-Toxic; Activity [19]: Dose-Dependent Effect; inhibition [20]: < 50%; AUC(0-inf) [21]: 199 ng·h/mL; microsomal CLint at 100 µM [22]: 55.1 µL/min/mg; inhibition [23]: < 50%; remaining at 1 h, 100 µM [24]: 19.6%; Activity [25]: Non-Toxic; Activity [26]: Non-Toxic; pIC50 [27]: < 6.30; pIC50 [28]: < 6.30; Activity [29]: Non-Toxic; pIC50 [30]: < 6.30; AUC(0-t) [31]: 361 ng·h/mL; Tmax [32]: 0.5 h; Activity [33]: Active; inhibition [34]: > 90%; half-life [35]: 5.28 h; RatioGI50 [36]: 92.97; inhibition at 0.25 h, 10 µM [37]: 27.9%
